# Laboratory results as given in patent US20100249419A1, “UTILIZATION OF NOVEL COMPOUNDS WITH AMYLOID AFFINITY AND METHOD OF PRODUCING THE SAME” (NIHON MEDI-PHYSICS CO., LTD., priority 2007, published 2010).
# How the values were obtained:
# [1] = target: T1, aggregated amylin (amyloid) (Homo sapiens, UniProt P10997); experiment: Inhibition of binding of Thioflavin T to amyloid derived from amylin; details: Thioflavin T 5 μmol/L
# T1 construct: Amylin (human) (manufactured by Wako); purchased Wako
# T1 sequence (P10997 34-70 limits assumed): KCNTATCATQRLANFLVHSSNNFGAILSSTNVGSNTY
# Procedure: Amylin is an amyloid accumulating in pancreas of type II diabetes.
# (1) Amylin (human) (manufactured by Wako) was dissolved in phosphate buffer (pH 7.4) and shaken at 37° C. for 72 hours, to obtain a 1 mg/mL suspension of aggregated amylin (hereinafter referred to as amyloid suspension in this Example).
# (2) According to the method described in a literature (Naiki, H., et al., Laboratory
# (3) The amyloid suspension was dissolved in 50 mM phosphate buffer (pH 7.4) at a concentration of amylin of 15 μM.
# (4) Samples in which each compound for evaluation and amyloid were dissolved in a 50 mM phosphate buffer (pH 7.4) at final concentrations shown in Table 9 were prepared.
# (5) A sample in which 100 μL of 50 mM phosphate buffer (pH 7.4) and 50 μL of 50 mM glycin-NaOH buffer were mixed was made as a blank, and subjected to the same procedure as in (4) and used for a calculation of inhibition ratio.
# (6) The microplate filled with the sample solutions was left to stand still at room temperature for 30 hours.
# (7) Using the fluorescence strength measured above in (6), the following formula (6): […]
# was used to determine the inhibition ratio.
# [2] = Radioactive distribution ratio in each organ; type: in vivo, SD rat
# Procedure: In order to confirm that a compound of the present invention can be distributed in a target organ and has good clearance to the outside of the body, Compound 1 was used to measure a time-course change of radioactive accumulation to each organ in SD rat (8 weeks).
# A solution of Compound 1 prepared in Example 3 in diethylether was diluted with a 10 mg/mL ascorbic acid-containing physiological saline solution (Example 10) and adjusted to 8-12 MBq/mL in radioactive concentration. 0.05 mL each of the prepared sample solution was administered under thiopental anesthesia into the tail vein of the above rat. The rats were sacrificed by bleeding from abdominal artery, and each organ shown in Table 11 was removed 5, 30, 60 and 180 minutes after the administration. Each removed organ was subjected to measurement of mass and radioactivity with the same method as in Example 10. Also, radioactivity of the whole body of the rat after removal of the organs (hereinafter referred to as rest of the whole body) was measured. Using these measurement results, radioactive distribution per unit weight of each organ (% ID/g) at the respective time points was calculated in accordance with the following formula (7).
# Three animals were used for the experiment at the respective time points.
# [formula] • R^T: Radioactivity of target organ (cpm) • R^S: Sum of radioactivity of all the organs (cpm) • R^R: Radioactivity of the rest of the whole body (cpm) • M^T: Mass of target organ (g)
substance,measurement,setting,value
"2-(4′-ethoxyphenyl)-6-[^123I]iodoimidazo[1,2-a]pyridine [Compound 2]",Inhibition ratio (%) of binding of amyloid (amylin) to Thioflavin T,[1]; compound 1.5 μmol/L,37.1%
same,Inhibition ratio (%) of binding of amyloid (amylin) to Thioflavin T,[1]; compound 15 μmol/L,46.9%
same,Inhibition ratio (%) of binding of amyloid (amylin) to Thioflavin T,[1]; compound 30 μmol/L,53.0%
"2-[4′-(2″-hydroxyethoxy)phenyl]-6-[^123I]iodoimidazo[1,2-a]pyridine [Compound 1]",Inhibition ratio (%) of binding of amyloid (amylin) to Thioflavin T,[1]; compound 1.5 μmol/L,34.4%
same,Inhibition ratio (%) of binding of amyloid (amylin) to Thioflavin T,[1]; compound 15 μmol/L,51.3%
same,Inhibition ratio (%) of binding of amyloid (amylin) to Thioflavin T,[1]; compound 30 μmol/L,46.8%
same,"Radioactive distribution per unit weight of organ, Average","[2]; Adrenal gland, 5 min. after administration",2.471 % ID/g
same,"Radioactive distribution per unit weight of organ, Average","[2]; Adrenal gland, 30 min. after administration",0.199 % ID/g
same,"Radioactive distribution per unit weight of organ, Average","[2]; Adrenal gland, 60 min. after administration",0.068 % ID/g
same,"Radioactive distribution per unit weight of organ, Average","[2]; Adrenal gland, 180 min. after administration",0.052 % ID/g
same,"Radioactive distribution per unit weight of organ, Average","[2]; Blood, 5 min. after administration",0.420 % ID/g
same,"Radioactive distribution per unit weight of organ, Average","[2]; Blood, 30 min. after administration",0.129 % ID/g
same,"Radioactive distribution per unit weight of organ, Average","[2]; Blood, 60 min. after administration",0.101 % ID/g
same,"Radioactive distribution per unit weight of organ, Average","[2]; Blood, 180 min. after administration",0.068 % ID/g
same,"Radioactive distribution per unit weight of organ, Average","[2]; Bone, 5 min. after administration",0.282 % ID/g
same,"Radioactive distribution per unit weight of organ, Average","[2]; Bone, 30 min. after administration",0.066 % ID/g
same,"Radioactive distribution per unit weight of organ, Average","[2]; Bone, 60 min. after administration",0.047 % ID/g
same,"Radioactive distribution per unit weight of organ, Average","[2]; Bone, 180 min. after administration",0.032 % ID/g
same,"Radioactive distribution per unit weight of organ, Average","[2]; Brain, 5 min. after administration",0.755 % ID/g
same,"Radioactive distribution per unit weight of organ, Average","[2]; Brain, 30 min. after administration",0.049 % ID/g
same,"Radioactive distribution per unit weight of organ, Average","[2]; Brain, 60 min. after administration",0.014 % ID/g
same,"Radioactive distribution per unit weight of organ, Average","[2]; Brain, 180 min. after administration",0.005 % ID/g
same,"Radioactive distribution per unit weight of organ, Average","[2]; Heart, 5 min. after administration",0.582 % ID/g
same,"Radioactive distribution per unit weight of organ, Average","[2]; Heart, 30 min. after administration",0.081 % ID/g
same,"Radioactive distribution per unit weight of organ, Average","[2]; Heart, 60 min. after administration",0.049 % ID/g
same,"Radioactive distribution per unit weight of organ, Average","[2]; Heart, 180 min. after administration",0.029 % ID/g
same,"Radioactive distribution per unit weight of organ, Average","[2]; Kidney, 5 min. after administration",1.212 % ID/g
same,"Radioactive distribution per unit weight of organ, Average","[2]; Kidney, 30 min. after administration",0.432 % ID/g
same,"Radioactive distribution per unit weight of organ, Average","[2]; Kidney, 60 min. after administration",0.236 % ID/g
same,"Radioactive distribution per unit weight of organ, Average","[2]; Kidney, 180 min. after administration",0.070 % ID/g
same,"Radioactive distribution per unit weight of organ, Average","[2]; Large intestine, 5 min. after administration",0.139 % ID/g
same,"Radioactive distribution per unit weight of organ, Average","[2]; Large intestine, 30 min. after administration",0.054 % ID/g
same,"Radioactive distribution per unit weight of organ, Average","[2]; Large intestine, 60 min. after administration",0.069 % ID/g
same,"Radioactive distribution per unit weight of organ, Average","[2]; Large intestine, 180 min. after administration",6.876 % ID/g
same,"Radioactive distribution per unit weight of organ, Average","[2]; Liver, 5 min. after administration",1.865 % ID/g
same,"Radioactive distribution per unit weight of organ, Average","[2]; Liver, 30 min. after administration",0.293 % ID/g
same,"Radioactive distribution per unit weight of organ, Average","[2]; Liver, 60 min. after administration",0.113 % ID/g
same,"Radioactive distribution per unit weight of organ, Average","[2]; Liver, 180 min. after administration",0.051 % ID/g
same,"Radioactive distribution per unit weight of organ, Average","[2]; Lung, 5 min. after administration",0.661 % ID/g
same,"Radioactive distribution per unit weight of organ, Average","[2]; Lung, 30 min. after administration",0.117 % ID/g
same,"Radioactive distribution per unit weight of organ, Average","[2]; Lung, 60 min. after administration",0.076 % ID/g
same,"Radioactive distribution per unit weight of organ, Average","[2]; Lung, 180 min. after administration",0.053 % ID/g
same,"Radioactive distribution per unit weight of organ, Average","[2]; Marrow, 5 min. after administration",0.921 % ID/g
same,"Radioactive distribution per unit weight of organ, Average","[2]; Marrow, 30 min. after administration",0.087 % ID/g
same,"Radioactive distribution per unit weight of organ, Average","[2]; Marrow, 60 min. after administration",0.015 % ID/g
same,"Radioactive distribution per unit weight of organ, Average","[2]; Marrow, 180 min. after administration",0.000 % ID/g
same,"Radioactive distribution per unit weight of organ, Average","[2]; Muscle, 5 min. after administration",0.372 % ID/g
same,"Radioactive distribution per unit weight of organ, Average","[2]; Muscle, 30 min. after administration",0.042 % ID/g
same,"Radioactive distribution per unit weight of organ, Average","[2]; Muscle, 60 min. after administration",0.025 % ID/g
same,"Radioactive distribution per unit weight of organ, Average","[2]; Muscle, 180 min. after administration",0.015 % ID/g
same,"Radioactive distribution per unit weight of organ, Average","[2]; Pancreas, 5 min. after administration",0.778 % ID/g
same,"Radioactive distribution per unit weight of organ, Average","[2]; Pancreas, 30 min. after administration",0.097 % ID/g
same,"Radioactive distribution per unit weight of organ, Average","[2]; Pancreas, 60 min. after administration",0.051 % ID/g
same,"Radioactive distribution per unit weight of organ, Average","[2]; Pancreas, 180 min. after administration",0.033 % ID/g
same,Excretion / clearance to the outside of the body,"[2]; SD rat, tail vein administration",biliary-excreted rapidly
same,"Radioactive distribution per unit weight of organ, Average","[2]; Small intestine, 5 min. after administration",1.299 % ID/g
same,"Radioactive distribution per unit weight of organ, Average","[2]; Small intestine, 30 min. after administration",6.720 % ID/g
same,"Radioactive distribution per unit weight of organ, Average","[2]; Small intestine, 60 min. after administration",7.515 % ID/g
same,"Radioactive distribution per unit weight of organ, Average","[2]; Small intestine, 180 min. after administration",0.882 % ID/g
same,"Radioactive distribution per unit weight of organ, Average","[2]; Spleen, 5 min. after administration",0.508 % ID/g
same,"Radioactive distribution per unit weight of organ, Average","[2]; Spleen, 30 min. after administration",0.072 % ID/g
same,"Radioactive distribution per unit weight of organ, Average","[2]; Spleen, 60 min. after administration",0.044 % ID/g
same,"Radioactive distribution per unit weight of organ, Average","[2]; Spleen, 180 min. after administration",0.035 % ID/g
same,"Radioactive distribution per unit weight of organ, Average","[2]; Stomach, 5 min. after administration",0.492 % ID/g
same,"Radioactive distribution per unit weight of organ, Average","[2]; Stomach, 30 min. after administration",1.202 % ID/g
same,"Radioactive distribution per unit weight of organ, Average","[2]; Stomach, 60 min. after administration",0.808 % ID/g
same,"Radioactive distribution per unit weight of organ, Average","[2]; Stomach, 180 min. after administration",0.982 % ID/g
same,Ratio (% ID/g at 5 minutes after the administration)/(% ID/g at 180 minutes after the administration),[2]; bones,9
same,Ratio (% ID/g at 5 minutes after the administration)/(% ID/g at 180 minutes after the administration),[2]; brain,145
same,Ratio (% ID/g at 5 minutes after the administration)/(% ID/g at 180 minutes after the administration),[2]; heart,20
same,Ratio (% ID/g at 5 minutes after the administration)/(% ID/g at 180 minutes after the administration),[2]; lung,13
same,Ratio (% ID/g at 5 minutes after the administration)/(% ID/g at 180 minutes after the administration),[2]; pancreas,24
